Assay results published in patent US6835382B2, “Ii peptide therapeutics to enhance antigen presentation” (University of Massachusetts, priority 1996, dated 2004).
Non-standard residues stand in square brackets, D forms with d. hArg = N=C(N)NCCCC[C@H](N)C(=O)O

Test system: murine E^k MHC class II allele
Assay: antigenic peptide prepulse assay, E^k allele (fixed APC prepulsed with PGCC81-104)
Type: cell-based
Conditions: for Activity in antigenic peptide prepulse assay, E^k (baseline = 1): Table 23, as printed: antigenic peptide prepulse 64 μM, AE peptide 1:8 μM; for Activity in antigenic peptide prepulse assay, E^k (baseline = 1.0): prepulse 1.25 μM antigenic peptide
Experimental: In a second type of assay, the “peptide prepulse assay”, the antigenic peptide is incubated with paraformaldehyde-fixed APC for 6 h. The APC are washed and incubated for 24 h with the AE101 series homolog and the T cell hybridoma specific for the antigenic peptide. After that incubation, an aliquot of the culture supernatant is transferred to a second culture to measure the relative degree of T hybridoma stimulation, as reflected in the effect of released interleukins on the growth of an interleukin-dependent, indicator cell line, as described above.
The two above described assays measure different aspects of the molecular mechanism of the AE101 series of peptides. In the “simultaneous assay”, AE101 series peptides are thought to induce the release of endogenously bound peptides and to permit the binding of the second, specific antigenic peptide which is relatively abundant in the culture fluid. The AE101 series peptides enhance antigenic peptide-specific T cell responses in simultaneous assays. In the “peptide prepulse” assay, the specific antigenic peptide becomes bound to MHC class II molecules on the surface of the fixed APC during the 6 h prepulse incubation. The effect of the AE101 series homologs is then thought to release that antigenic peptide, resulting in an apparent suppression of the immune response.
The AE101 series peptides are thought to contact the MHC class II molecules at a discrete site outside the antigenic peptide-binding groove. AE101 peptide binding to this “Ii-KEY” site is thought to induce a conformational change in the MHC class II molecules accelerating the dissociation of previously bound antigenic peptide. […] The AE101 series peptides thus inhibit antigenic peptide-specific T cell responses in the “peptide prepulse” assays.
Antigenic peptide-specific T cell activation was measured by the following procedure. Mitomycin C-treated A20 cells (A^dE^d) or CH27 cells APC (A^kE^k) were generated by incubating 5×10^6 cells/mL for 20 min at 37° C. with 0.025 mg/mL of mitomycin C (Sigma) in Dulbecco's Modified Eaglel's Medium (DMEM)/10 mM N-2(hydroxyethylpiperazine-N″[2-ethanesulfonic acid] (HEPES), followed by two washes with four volumes of DMEM-5% fetal calf serum (FCS), 10 mM HEPES. Fixed APC were generated by treating 1×10^6 cells/mL for 5 min with 0.5% paraformaldehyde in PBS (pH 7.2), followed by two washes with four volumes of DMEM-10% FCS, 10 mM HEPES. T cell hybridomas were irradiated 2200 rads before each assay.
The “peptide prepulse assay” was carried out under essentially the same conditions as described for the “simultaneous assay” with the following modifications. Fixed APC were first incubated for 6 h at 1×10^6 cells/mL in complete DMEM-5% FCS in 24-well microculture plates (1 mL/well) with antigenic peptide, followed by four washes with 10 volumes of DMEM-5% FCS. The cells were then exposed to varying concentrations of AE101 series peptide (64 μM, 16 μM, 4 μM, and 1 μM) for 24 h in the presence of the T cell hybridoma specific to the antigenic peptide. Interleukin release from these cultures was measured by proliferation of HT-2 cells to interleukins in supernatants transferred from the primary culture. Generally, a single dose of 64 μM of each AE101 series peptide was used. The baseline T cell response was measured by culturing T hybridoma cells with the antigenic peptide-prepulsed APC in the absence of AE101 series peptides.
Table 19: Activities of C-terminal truncation analogs of AE101 in an antigenic peptide prepulse assay. […] Paraformaldehyde-treated APC (fixed APC) expressing MHC class II molecules were incubated with antigenic peptide for 6 h (HEL106-116 for E^d and PGCC81-104 for E^k). After this incubation, the prepulsed APC were washed and cultured with T hybridoma cells and AE101 series peptides. The antigenic peptide concentration during the prepulse was 12 μM for Ed and 20 μM for E^k. The AE101 series peptide concentrations were 64 μM for E^d and 16 μM for E^k. […]

[1] = Table 24, AE peptide 64 μM, prepulse 0.625 μM antigenic peptide, supernatant 1:8
[2] = Table 25, AE peptide 64 μM, prepulse 2.5 μM antigenic peptide, supernatant 1:10
[3] = Table 22, AE peptide 16 μM, prepulse 20 μM antigenic peptide, supernatant 1:2
[4] = Table 26, AE peptide 64 μM, supernatant 1:8

Substance | Activity in antigenic peptide prepulse assay, E^k (baseline = 1.00) [1] | Activity in antigenic peptide prepulse assay, E^k (baseline = 1.00) [2] | further results
Ac- (mL) RMKLPK-NH2 [AE174] | 0.81 |  | Activity in antigenic peptide prepulse assay, E^k (baseline = 1) (supernatant 1:2): 0.81
Ac-ARMKLPKSAK-NH2 [AE120] |  | 0.62 | 
Ac-ARMKNPK-NH2 [AE345] |  | 0.86 | 
Ac-ARNKLPK-NH2 [AE344] |  | 0.76 | 
Ac-ARNKNPF-NH2 [AE347] |  | 1.10 | 
Ac-ARNKNPK-NH2 [AE346] |  | 0.77 | 
Ac-L r MKLPK-NH2 [AE161] |  |  | Activity in antigenic peptide prepulse assay, E^k (baseline = 1.00) [3]: 0.85
Ac-LR (mL) KLPK-NH2 [AE302] | 0.85 |  | 
Ac-LR (mL) KYPK-NH2 [AE303] | 1.00 |  | 
Ac-LR (mL) KYPk-NH2 [AE305] | 0.91 |  | 
Ac-LR (mL) KyPK-NH2 [AE304] | 0.76 |  | 
Ac-LR (mL) KyPk-NH2 [AE306] | 1.00 |  | 
Ac-LR HArg KLPK-NH2 [AE197] |  |  | Activity in antigenic peptide prepulse assay, E^k (baseline = 1.0) [4]: 0.96
Ac-LR L KLPK-NH2 (Ac-LRLKLPK-NH2; not fully specified; printed as Ac-LR L KLPK-NH2) [AE206] | 1.00 | 0.68 | Activity in antigenic peptide prepulse assay, E^k (baseline = 1.0) [4]: 0.96
Ac-LR N KLPK-NH2 (Ac-LRNKLPK-NH2) [AE202] |  | 0.84 | 
Ac-LR m KLPK-NH2 [AE162] |  |  | Activity in antigenic peptide prepulse assay, E^k (baseline = 1.00) [3]: 0.61
Ac-LRLK HArg PK-NH2 [AE341] |  | 1.10 | 
Ac-LRLKWPK-NH2 [AE309] | 0.81 | 0.93 | Activity in antigenic peptide prepulse assay, E^k (baseline = 1.0) [4]: 0.98
Ac-LRLKYPK-NH2 [AE301] | 0.80 | 0.86 | Activity in antigenic peptide prepulse assay, E^k (baseline = 1.0) [4]: 0.99
Ac-LRLKYPk-NH2 [AE307] | 1.10 |  | 
Ac-LRLKyPK-NH2 [AE308] | 0.63 |  | 
Ac-LRM M LPK-NH2 (Ac-LRMMLPK-NH2) [AE220] |  |  | Activity in antigenic peptide prepulse assay, E^k (baseline = 1.0) [4]: 0.92
Ac-LRM k LPK-NH2 [AE163] |  |  | Activity in antigenic peptide prepulse assay, E^k (baseline = 1.00) [3]: 0.99
Ac-LRMK (mL) PK-NH2 [AE175] | 0.87 |  | Activity in antigenic peptide prepulse assay, E^k (baseline = 1) (supernatant 1:2): 0.87
Ac-LRMK HArg PK-NH2 (Ac-LRMK[hArg]PK-NH2; SMILES CSCC[C@H](NC(=O)[C@H](CCCNC(=N)N)NC(=O)[C@H](CC(C)C)NC(C)=O)C(=O)N[C@@H](CCCCN)C(=O)N[C@@H](CCCCNC(=N)N)C(=O)N1CCC[C@H]1C(=O)N[C@@H](CCCCN)C(N)=O) [AE227] |  | 0.87 | 
Ac-LRMK N PK-NH2 (Ac-LRMKNPK-NH2) [AE232] |  | 0.92 | 
Ac-LRMK Y PK-NH2 (Ac-LRMKYPK-NH2; not fully specified; printed as Ac-LRMK Y PK-NH2) [AE235] | 0.80 | 0.76 | Activity in antigenic peptide prepulse assay, E^k (baseline = 1.0) [4]: 0.60; T cell response relative to baseline without AE peptide (None = 1.0), E^k (Table 27, antigenic peptide prepulse 1.25 μM, AE101 series peptide 64 μM, HT-2 supernatant dilution 1:8): 0.83; Activity in antigenic peptide prepulse assay, E^k (baseline = 1.0) (Table 28, AE peptide 64 μM, supernatant 1:4): 0.80
Ac-LRMK l PK-NH2 [AE164] | 0.67 |  | Activity in antigenic peptide prepulse assay, E^k (baseline = 1.00) [3]: 0.21
Ac-LRMKL p K-NH2 [AE165] |  |  | Activity in antigenic peptide prepulse assay, E^k (baseline = 1.00) [3]: 0.22
